Patent publication US20250032450A1, “[…] INHALABLE FORMULATIONS” (Cybin UK Ltd., priority 2021, published 2025)
Converted amounts (≈) assume the structure as drawn. Where two headings read alike, the source gives them in different places.

Assays:
[1] = N,N-Dimethyltryptamine pH-solubility in 0.5M Britton Robinson buffer; format: physicochemical; settings: aqueous buffer, thermodynamic from solid, read-out: solubility, Real data
Protocol: Prior to adding N,N-dimethyltryptamine, a quantity of NaOH was added to the BR buffer as required to ensure the required pH. The total volume of BR buffer plus required amount of NaOH was 5 ml for each pH tested (pH 4, 5, 6, 7, 8, 9 & 10).

[2] = HMDB; cited from earlier work
[3] = in water; estimated; cited from earlier work

Question: For `CN(C)CCc1c[nH]c2ccccc12` [N,N-Dimethyltryptamine], which solubility ([1]; pH 4.05, 25° C.) is on record?
Answer: 105 mg/mL (≈ 556 mM)

Question: And the solubility ([1]; pH 4.98, 25° C.)?
Answer: 126 mg/mL (≈ 671 mM)

Question: And the solubility ([1]; pH 6.05, 25° C.)?
Answer: 92.6 mg/mL (≈ 492 mM)

Question: And the solubility ([1]; pH 7.08, 25° C.)?
Answer: 68.6 mg/mL (≈ 364 mM)

Question: What about the solubility ([1]; pH 8.07, 25° C.) of the same molecule?
Answer: 88.4 mg/mL (≈ 470 mM)

Question: And the solubility ([1]; pH 8.91, 25° C.)?
Answer: 17.1 mg/mL (≈ 90.8 mM)

Question: What about the solubility ([1]; pH 10.01, 25° C.) of the same molecule?
Answer: 1.14 mg/mL (≈ 6.06 mM)

Question: And the degradation in solution [2]?
Answer: degrades relatively quickly in solution

Question: For `CN(C)CCc1c[nH]c2cccc(OP(=O)(O)O)c12` [psilocybin, [3-(2-Dimethylaminoethyl)-1H-indol-4-yl] dihydrogen phosphate], which “pKa of terminal phosphate oxygen atom (first value)” value [3] is on record?
Answer: 1.3

Question: And the “pKa of terminal phosphate oxygen atom (second value)” value [3]?
Answer: 6.5
